{"source": "patent US20180110754A1", "about": "“CENICRIVIROC FOR THE TREATMENT OF FIBROSIS” (Tobira Therapeutics, Inc., priority 2015, published 2018)", "key": {"[1]": {"experiment": "Chronic (3- and 9-month) monkey toxicity studies", "format": "in vivo", "settings": "1000 mg/kg/day"}, "[2]": {"experiment": "Study 201: safety and tolerability", "format": "in vivo, human", "method": "Participants were required to be antiretroviral treatment-experienced, CCR5 antagonist-naive, with HIV-1 RNA levels of at least 5000 copies/mL and CD4+ cell counts of at least 250 cells/mm^3 was performed."}, "[3]": {"tested_on": "STAM mouse model of Non-alcoholic Steatohepatitis (NASH-derived HCC)", "experiment": "STAM mouse model of NASH, week 18 (anti-HCC effects)", "settings": "for Mice that died before sacrifice (survival analysis): weeks 6-18", "method": "Group 1—Vehicle: Eighteen NASH mice were orally administered vehicle at a volume of 10 mL/kg twice daily (9:00 and 19:00) from 6 weeks of age."}, "[4]": {"tested_on": "HIV-1 BaL", "experiment": "Extracellular virus (viral RNA, p24) in culture fluids of PM-1 cells exposed to HIV-1 BaL", "format": "cell-based", "settings": "4 hrs post-infection, CVC 20 nM, MVC 50 nM", "text": "Cells. PM-1 cells that express CD4, CCR5, and CXCR4 were maintained in RPMI-1640 medium containing 10% fetal bovine serum (R10 medium) at 37C, 5% CO2. 293T cells used for transfection were maintained in DMEM at 10% FBS, L-glutamine, and antibiotics (D10 medium) at 37C, 5% CO2. Virus Stocks. HIV-1 BaL virus was produced by transfecting 293T cells with the plasmid pWT/BaL. Lipofectamine 2000 was used as a transfection agent. Culture supernatants were collected at 48 hrs post-transfection, filtered through a 0.45 μm pore filter, and treated with 50 units of benzonase per ml of virus stock for 20 minutes at 37C to remove contaminating plasmid DNA. Virus stocks were frozen at −80C to halt benzonase activity. Benzonase-treated virus stocks were propagated in cord blood mononuclear cells (CBMCs). CBMCs were stimulated for 72 h with phytohemagluttinin (PHA-M) in R10 medium prior to infection with HIV-1 BaL. The viral amplification culture was subsequently grown in R10 supplemented with interleukin 2 (IL-2) and incubated at 37C, 5% CO2.\nBoth drugs were incubated with PM-1 cells for 1 hr at 37 C prior to the addition of virus. 500 ng of p24 antigen of HIV-1 BaL were incubated per 5×10^5 cells in 1 ml of R10 media. Virus only controls, described as “no cell” in the text, were used to measure viral decay. Viral adsorption was measured in the no-drug controls, whereby 500 ng of p24 Ag of HIV-1 Bal were added per 5×10^5 PM-1 cells that were pre-incubated at 37 C for 1 hr in the absence of drug treatment. Each drug treatment and control was performed in duplicate. Viral RNA was extracted from 140 μl of supernatant fluid using the QIAamp Viral RNA mini kit according to manufacturer's instructions. Samples were stored at −80 C until analysis. Supernatant viral loads were measured using quantitative real-time reverse transcription PCR (qRT-PCR) with the primers US1SSF (5′-[…]-3′), US1SSR (5′-[…]-3′) and US1SS probe (5′-(FAM) […]) and the Invitrogen qRT-PCR Supermix Kit. Cycling parameters were: 50° C. for 15 minutes, 95° C. for 10 minutes, followed by 50 cycles of 95° C. for 15 seconds, and 60° C. for 1 minute. All values are the result of replicate testing over 2 independent experiments. RNA copy number was quantified by use of 10-fold serial dilutions of pBaL/wt to generate standard curves for each assay and calibrated against samples with known copy numbers from previous studies."}, "[5]": {"tested_on": "thioglycollate-induced peritonitis (monocyte/macrophage and leukocyte recruitment)", "experiment": "Mouse thioglycollate-induced peritonitis model: peritoneal lavage cell counts, body weight", "format": "in vivo", "method": "Summary: The mouse thioglycollate induced peritonitis model is a commonly used preclinical model to assess the recruitment of […] cells and to assess the activation of macrophages.\nDexamethasone was used as a positive control in this experiment as it is a corticosteroid known to reduce inflammation in a variety of animal models. Murine inflammation models indicate that the effective dose range for dexamethasone, when administered orally, is 0.3 to 3 mg/kg QD. On this basis, an intermediate dose of 1 mg/kg was chosen for this particular study.\nThe lavage was repeated with a second injection of 2.5 mL via the initial puncture site and the samples were pooled for each animal.\nThe lavage fluid was placed on wet ice pending processing for total and differential cell counts using the Advia analyzer. Following the lavage collection, a blood sample (0.7 mL) was collected from each mouse by intracardiac puncture or from the vena cava (collection time was recorded). 0.5 mL of blood was placed in an EDTA tube, transferred to clinical pathology and analyzed for differential cell counts using the Advia analyzer. 0.2 mL of blood was placed in a K2EDTA tube and processed to plasma. The plasma was collected by centrifugation (3000 rpm for 10 minutes at 4° C.) and placed on dry ice. […] After blood collection, the animals were then exsanguinated by sectioning of the abdominal aorta.\nStatistical Analysis: One-way ANOVA with post-hoc Dunnett's statistical analysis was performed on differential cell counts obtained from lavage and blood samples. The analysis was performed in comparison to Group 2."}, "[6]": {"tested_on": "mouse monocytes", "experiment": "CCL2-induced chemotaxis ex vivo on mouse monocytes", "format": "cell-based", "method": "Monocyte/macrophage recruitment was assessed in vivo in a mouse model of thioglycollate-induced peritonitis. CCL2-induced chemotaxis was evaluated ex vivo on mouse monocytes. […] Study assessments included body and liver/kidney weight, liver function test, liver/kidney morphology and collagen deposition, fibrogenic gene and protein expression, and pharmacokinetic analyses."}, "[7]": {"settings": "CVC-high 100 mg/kg/day, week 18"}, "[8]": {"settings": "CVC-high 100 mg/kg/day, week 18, listed as Cenicriviroc"}, "[9]": {"settings": "CVC-low 20 mg/kg/day, week 18, listed as Cenicriviroc"}}}
{"smiles": "CCCCOCCOc1ccc(-c2ccc3c(c2)/C=C(/C(=O)Nc2ccc([S@@+]([O-])Cc4cncn4CCC)cc2)CCCN3CC(C)C)cc1", "note": "[CVC, (S)-8-[4-(2-Butoxyethoxy)phenyl]-1-isobutyl-N-(4-{[(1-propyl-1H-imidazol-5-yl)methyl]sulfinyl}phenyl)-1,2,3,4-tetrahydro-1-benzazocine-5-carboxamide]", "values": [{"measurement": "Inflammation in clinical pathology parameters or any tissue incl. liver (microscopic evaluation)", "setting": "[1]", "result": "No indication of inflammation"}, {"measurement": "Plasma MCP-1 levels over controls", "setting": "[1]; 3- and 9-month studies", "result": "~5", "unit": "fold"}, {"measurement": "Subjects with ALT and/or AST elevations (all Grade 1)", "setting": "[2]; 25 mg", "result": 2, "unit": "subjects"}, {"measurement": "Subjects with ALT and/or AST elevations (all Grade 1)", "setting": "[2]; 50 mg", "result": 2, "unit": "subjects"}, {"measurement": "Subjects with ALT and/or AST elevations (all Grade 1)", "setting": "[2]; 100 mg", "result": 1, "unit": "subject"}, {"measurement": "Subjects with ALT and/or AST elevations (all Grade 1)", "setting": "[2]; 150 mg", "result": 1, "unit": "subject"}, {"measurement": "Tolerability", "setting": "[2]; 25-150 mg once daily, 10 days", "result": "generally well tolerated"}, {"measurement": "Treatment-emergent AE: diarrhea", "setting": "[2]; Study 201, all subjects", "result": 16.7, "unit": "%"}, {"measurement": "Treatment-emergent AE: fatigue", "setting": "[2]; Study 201, all subjects", "result": 11.0, "unit": "%"}, {"measurement": "Treatment-emergent AE: headache", "setting": "[2]; Study 201, all subjects", "result": 14.8, "unit": "%"}, {"measurement": "Treatment-emergent AE: nausea", "setting": "[2]; Study 201, all subjects", "result": 18.5, "unit": "%"}, {"measurement": "Grade 2-4 elevations in ALT or AST", "setting": "[2]; during the study", "result": "No Grade 2-4 elevations"}, {"measurement": "Effect on NASH-derived HCC", "setting": "[3]; CVC treatment groups, week 18", "result": "not observed"}, {"measurement": "Body weight", "setting": "[3]; [7]", "result": "20.8 ± 2.7", "unit": "g"}, {"measurement": "CD31-positive area", "setting": "[3]; [7]", "result": "3.68±1.37", "unit": "%"}, {"measurement": "Liver weight", "setting": "[3]; [7]", "result": "1817 ± 446", "unit": "mg"}, {"measurement": "Maximum diameter of visible tumor nodules", "setting": "[3]; [7]", "result": "5.3±5.1", "unit": "mm"}, {"measurement": "Number of visible tumor nodules", "setting": "[3]; [7]", "result": "3.6±2.5"}, {"measurement": "Body weight", "setting": "[3]; [8]", "result": "20.8 ± 2.7", "unit": "g"}, {"measurement": "CD31-positive area", "setting": "[3]; [8]", "result": "3.68 ± 1.37", "unit": "%"}, {"measurement": "Liver weight", "setting": "[3]; [8]", "result": "1817 ± 446", "unit": "mg"}, {"measurement": "Maximum diameter of visible tumor nodules", "setting": "[3]; [8]", "result": "5.3 ± 5.1", "unit": "mm"}, {"measurement": "Number of visible tumor nodules", "setting": "[3]; [8]", "result": "3.6 ± 2.5"}, {"measurement": "Mice with GS-positive nodules", "setting": "[3]; CVC-high, week 18", "result": "seven out of seven"}, {"measurement": "Mice with HCC lesions (HE staining)", "setting": "[3]; CVC-high, week 18", "result": "six out of seven"}, {"measurement": "Mice that died before sacrifice (survival analysis)", "setting": "[3]; CVC-high", "result": "Five out of twelve"}, {"measurement": "Body weight", "setting": "[3]; CVC-low 20 mg/kg/day, week 18", "result": "22.9 ± 3.5", "unit": "g"}, {"measurement": "CD31-positive area", "setting": "[3]; CVC-low 20 mg/kg/day, week 18", "result": "1.47±1.10", "unit": "%"}, {"measurement": "Liver weight", "setting": "[3]; CVC-low 20 mg/kg/day, week 18", "result": "1837 ± 410", "unit": "mg"}, {"measurement": "Maximum diameter of visible tumor nodules", "setting": "[3]; CVC-low 20 mg/kg/day, week 18", "result": "4.8±5.4", "unit": "mm"}, {"measurement": "Number of visible tumor nodules", "setting": "[3]; CVC-low 20 mg/kg/day, week 18", "result": "1.5±1.9"}, {"measurement": "Body weight", "setting": "[3]; [9]", "result": "22.9 ± 3.5", "unit": "g"}, {"measurement": "CD31-positive area", "setting": "[3]; [9]", "result": "1.47 ± 1.10", "unit": "%"}, {"measurement": "Liver weight", "setting": "[3]; [9]", "result": "1837 ± 410", "unit": "mg"}, {"measurement": "Maximum diameter of visible tumor nodules", "setting": "[3]; [9]", "result": "4.8 ± 5.4", "unit": "mm"}, {"measurement": "Number of visible tumor nodules", "setting": "[3]; [9]", "result": "1.5 ± 1.9"}, {"measurement": "Mice with GS-positive nodules", "setting": "[3]; CVC-low, week 18", "result": "five out of six"}, {"measurement": "Mice with HCC lesions (HE staining)", "setting": "[3]; CVC-low, week 18", "result": "five out of six"}, {"measurement": "Mice that died before sacrifice (survival analysis)", "setting": "[3]; CVC-low", "result": "Six out of twelve"}, {"measurement": "p24 antigen level in culture fluids", "setting": "[4]; baseline 506 ng/ml", "result": 192, "unit": "ng/mL"}, {"measurement": "Viral RNA in culture fluids", "setting": "[4]; baseline 1.19×10^10", "result": "1.26×10^10 copies/ml"}, {"measurement": "Decrease in monocytes in peritoneal lavage vs thioglycollate control (Group 2)", "setting": "[5]; Group 3 (CVC BID)", "result": 5.7, "unit": "%"}, {"measurement": "Decrease in total leukocytes in peritoneal lavage vs thioglycollate control (Group 2)", "setting": "[5]; Group 3 (CVC BID)", "result": 0.8, "unit": "%"}, {"measurement": "Decrease in monocytes in peritoneal lavage vs thioglycollate control (Group 2)", "setting": "[5]; Group 4 (CVC BID)", "result": 45.2, "unit": "%"}, {"measurement": "Decrease in total leukocytes in peritoneal lavage vs thioglycollate control (Group 2)", "setting": "[5]; Group 4 (CVC BID)", "result": 22.2, "unit": "%"}, {"measurement": "Decrease in monocytes in peritoneal lavage vs thioglycollate control (Group 2)", "setting": "[5]; Group 5 (CVC BID)", "result": 76.5, "unit": "%"}, {"measurement": "Decrease in total leukocytes in peritoneal lavage vs thioglycollate control (Group 2)", "setting": "[5]; Group 5 (CVC BID)", "result": 57.6, "unit": "%"}, {"measurement": "Decrease in monocytes in peritoneal lavage vs thioglycollate control (Group 2)", "setting": "[5]; Group 6 (CVC QD)", "result": 26.0, "unit": "%"}, {"measurement": "Decrease in total leukocytes in peritoneal lavage vs thioglycollate control (Group 2)", "setting": "[5]; Group 6 (CVC QD)", "result": 14.2, "unit": "%"}, {"measurement": "Body weights, Days 1 to 6", "setting": "[5]; mouse, in vivo", "result": "no notable changes in body weights"}, {"measurement": "Monocyte migration ex vivo (CCL2-induced chemotaxis)", "setting": "[6]", "result": "reduced"}]}
